As a reminder, the IC50 is the point on the concentration scale where inhibition reaches its midpoint.

The subject of series [1] is JLD. The experiment in a line: In vitro cell proliferation assay, continuous drug exposure. In kind it is cell-based. The following applies: Homo sapiens; JLD (reduced topoisomerase II), continuous drug exposure 3-5 days. An excerpt:
(§1) The results with the JLA and JLD lines, which have reduced topoisomerase II content as compared to the parental Jurkat line, indicate that the IC50 value of the compound is increased with decreased topoisomerase content. This is also the case for etoposide, amsacrine, DACA and doxorubicin.

Series [2] relates to JLA. The series is described as above. It counts as cell-based. The following applies: Homo sapiens; JLA (reduced topoisomerase II), continuous drug exposure 3-5 days.
Excerpt: as §1

Series [3] concerns HCT116p53−. The series is described as above. Particulars: Homo sapiens, continuous drug exposure 3-5 days. It counts as cell-based.
Excerpt: as §1

The subject of series [4] is HCT116p53+. The series is described as above. It counts as cell-based. The following applies: Homo sapiens, continuous drug exposure 3-5 days.
Excerpt: as §1

Series [5] has as its system Jurkat. The series is described as above. It counts as cell-based. Particulars: Homo sapiens, continuous drug exposure 3-5 days.
Excerpt: as §1

Series [6] has as its system CHrC5. The series can be described thus: In vitro susceptibility to multidrug resistance, continuous exposure IC50. It counts as cell-based, Chinese Hamster. Particulars: for IC50: Cricetulus griseus, CHrC5 (multidrug resistant), continuous exposure; for Resistance factor: ratio of IC50 values in CHrC5 and AuxB1. Here is the method:
(§2) Multidrug resistance mediated by p-glycoprotein and related transport proteins is an important means by which cancer cells evade cytotoxic drugs. […] IC50 values of several drugs were measured in continuous exposure assays in these two cell lines. The resistance factor was calculated as the ratio of these values. High values indicate high susceptibility to resistance.

For series [7], the system named is AuxB1. The description is as above. In kind it is cell-based, Chinese Hamster. The following applies: Cricetulus griseus, AuxB1 (no multidrug resistance). Here is the method:
as §2

The conditions of series [8]: data taken from the literature; cited from earlier work.
Series [9] relates to p53, p21 and Fas in HCT116 (TP53 wild type). The series can be described thus: Induction of the p53 pathway, western blotting. In kind it is cell-based, human. An excerpt: The p53 protein is thought to play a major role in the induction of apoptosis in tumour cells (Levine A J. p53, the cellular gatekeeper for growth and division. Cell. 1997. 88(3):323-331). The p53 protein is a transcriptional activator, which acts in response to DNA damage and other stress pathways, and increases expression of proteins such as Fas and p21^WAF1. […] Products were detected by western blotting.

Series [10] deals with Jurkat LA. The experiment in a line: Human tumour xenograft. It counts as in vivo. The following applies: Leukaemia, comparison drug. How it is done: (§3) The compound of Formula II was evaluated in a number of xenografts using cell lines derived from cervical, endometrial, lung and colon carcinomas, leukaemia and melanoma (Table 3). These studies indicate that the compound according to the present invention has significant activity in xenografts.

Series [11] has as its system NZEN1. The experiment in a line: Human tumour xenograft. It counts as in vivo. The following applies: NZEN1, Endometrium; comparison drug. How it is done: as §3
The test system of series [12] is survivin in HCT116 (TP53 wild type). The series can be described thus: Inhibition of survivin production, western blotting. It counts as cell-based, human. Particulars: various concentrations, 24 hours. How it is done: Survivin is a protein that is expressed selectively in many types of cancer cells and which is known to be associated with resistance to apoptosis (Zaffaroni N and Daidone M G. Survivin expression and resistance to anticancer treatments: perspectives for new therapeutic interventions. Drug Resistance Updates: Reviews and Commentaries in Antimicrobial and Anticancer Chemotherapy. 2002 5(2):65-72). […] Extracts were prepared, proteins were separated by electrophoresis and survivin expression was determined by western blotting.

The subject of series [13] is NZMp2. The experiment in a line: Human tumour xenograft. It counts as in vivo. The following applies: NZMp2, Melanoma; comparison drug. How it is done: as §3
Background: In xenograft studies the graft and the host belong to different species.

Series [14] deals with NZM10. The series can be described thus: Human tumour xenograft. It counts as in vivo. Particulars: NZM10, Melanoma; comparison drug. Here is the method:
as §3

Series [15] has as its system NZM3. The series can be described thus: Human tumour xenograft. It counts as in vivo. Particulars: NZM3, Melanoma; comparison drug. How it is done:
as §3

For series [16], the system named is NZC1. The experiment in a line: Human tumour xenograft. Particulars: NZC1, Cervix; comparison drug. It counts as in vivo. Here is the method:
as §3

Series [17] relates to NZM4. The series can be described thus: Human tumour xenograft. It counts as in vivo. The following applies: NZM4, Melanoma; comparison drug. Here is the method: as §3

SMILES strings stand for the structures.

Take `COc1cc(NS(C)(=O)=O)ccc1Nc1c2ccccc2nc2ccccc12` [Amsacrine]: the IC50 is 2700 nM in series [1]; 3100 nM in series [2]; 52 nM in series [3]; 25 nM in [4]; 37 nM in [5]; 110 nM in series [6]. This compound also showed a 50% inhibitory concentration (IC50) in [7] of 19 nM. Further, the Resistance factor in series [6] was 5.6. For the same compound, the “accumulation in tumour tissue versus liver tissue and plasma” value in series [8] is listed as “accumulate more in the liver tissue than tumour tissue”.
For `CN(C)CCNC(=O)c1cccc2cc3ccccc3nc12.Cl.Cl` [DACA, N-[2-(dimethylamino)ethyl]acridine-4-carboxamide dihydrochloride], the IC50 turned out to be 2500 nM in series [1]; 1100 nM in series [2]; 510 nM in series [3]; 360 nM in series [4]; 580 nM in series [5]; 216 nM in series [6]. Moreover, in series [7], it took 125 nM to reach half-maximal inhibition (IC50). In [6], the Resistance factor is 1.6. In [8], the “accumulation in tumour tissue versus liver tissue and plasma” value is “relatively evenly spread throughout each tissue and plasma”.
As for `COc1cccc2c1C(=O)c1c(O)c3c(c(O)c1C2=O)C[C@@](O)(C(=O)CO)C[C@@H]3O[C@H]1C[C@H](N)[C@H](O)[C@H](C)O1` [Doxorubicin], the “induction of p53, p21 and Fas” value in series [9] (24 hours at higher cell density (approaching confluence)) is “did not”; in series [9] (24 hours exposure) it was “induced p53, p21 and Fas in dose-dependent fashions”; in series [9] (earlier times (4-10 hours)), “did not”. For the same compound, the concentration for half-maximal inhibition (IC50) in series [1] was determined as 270 nM; in series [2], 42 nM; in series [3] it was 21 nM; in [4] it was 10.5 nM; in [5] it was 9.6 nM; in series [6] it was 6100 nM. The compound further gave an IC50 in series [7] of 53 nM. Also, the Comparison entry in series [10] and in series [11] was “inactive” throughout. Besides, the Resistance factor in series [6] came out at 114. Also, the survivin expression result in [12] is on record as “only small effects”.
In the case of `COc1cc([C@@H]2c3cc4c(cc3[C@@H](O[C@@H]3O[C@@H]5CO[C@@H](C)O[C@H]5[C@H](O)[C@H]3O)[C@H]3COC(=O)[C@H]23)OCO4)cc(OC)c1O` [Etoposide], the IC50 in [1] came out at 14400 nM; in series [2] it was 2080 nM; in series [3], 390 nM; in series [4], 210 nM; in [5], 160 nM; in series [6], 8600 nM. Besides, in series [7], the IC50 turned out to be 1190 nM. Besides, the Comparison entry in series [13], in series [14], in series [15], in series [16] and in series [17] was “active” each time. Besides, the Resistance factor in series [6] is 7.2. The survivin expression entry in series [12] is “only small effects”.
Turning to `CNC(=O)c1cccc2c(Nc3ccc(NS(C)(=O)=O)cc3OC)c3cccc(C)c3nc12` [asulacrine, 9-((2-methoxy-4-[(methylsulfonyl)-amino]phenyl)amino)-N,5-dimethyl-4-acridinecarboxamide], the “accumulation in tumour tissue versus liver tissue and plasma” value in series [8] is reported as “accumulate more in the liver tissue than tumour tissue”.

The record behind these values is patent US20080248134A1, “Oral compositions, use and combinations of N-[2-(dimethylamino)ethyl]-2,6 dimethyl-1-oxo-1,2-dihydrobenzo[b]-1,6-naphthyridine-4-carboxamide and closely related analogues thereof” (Auckland Uniservices Limited, priority 2005, published 2008).
